Reference: patent publication US9737532B2, “Method of treating ischemia/reperfusion injury” (TOKYO UNIVERSITY OF SCIENCE FOUNDATION, priority 2011, dated 2017)
Read-outs that look alike come from different tables or passages of the source. Where a SMILES comes first, the peptide text is derived from it. The star is where a group is joined. Cbz = O=C(OCc1ccccc1)*

Experiments:
Parp1 protein [1] = assay: Parp1 protein levels by Western blotting in mouse cells; assay type: cell-based; settings: for basal Parp1 protein levels: MG132 alone, 5 μM; for reduction in Parp1 protein: summary statement of the discussion; for Parp1 reduction, p53 dependency: MEFs from p53+/+ or −/− mice
Text: Mouse fibroblast cell line 3T3-L1, human lung cancer cell line A549, and human hepatoma cell line HepG2 were purchased from the RIKEN Bioresource Center (Japan). Mouse fibroblast cell line 3T3-F442A and human osteosarcoma cell line U2OS were purchased from the European Collection of Animal Cell Cultures (U.K.). p53 deficient mouse-derived fibroblast cell line HW (J. Med. Chem. (2010) 53, 4561-4584) was kindly provided by Dr. Masayuki Saito (Tenshi University, Japan). The cells were maintained in Dulbecco's modified Eagle's medium (low glucose) (WAKO, Japan) with 10% (3T3-L1, 3T3-F442A, HW, U2OS, and HepG2) or 5% (A549) fetal calf serum and 1% penicillin/streptomycin (SIGMA). Cpt and MG132 were purchased from WAKO (Japan).
We designed a mouse p53 shRNA expression vector based on target sequences for effective p53 knockdown, as previously reported (J. Biol. Chem. (2003) 278, 11731-11734). Two oligonucleotides, 5′-gatcccc[…]ttcaagaga[…]ttttt ggaaa-3′ (SEQ ID NO:1) and 5′-agcttttccaaaaa[…]tctcttgaa[…] ACggg-3′ (SEQ ID NO:2) (upper case letters, target sequences against p53; lower case letters, BgIII, HindIII or loop structure sequences) were chemically synthesized (Operon Biotechnology, USA). The annealed oligos were directly ligated into a BgIII and HindIII-digested pSUPER-puro shRNA expression vector gifted from Dr. Shigeo Ohno (Yokohama City University, Japan) (Cell Sci. (2006) 119, 2107-2118). The produced vector, termed pSUPER-puro-shmp53, was transfected with Lipofectamine LTX (Invitrogen, USA) into 3T3-L1 cells, according to the manufacturer's protocol. For stable p53 knockdown cell lines, the transfected cells were selected with puromycin and resistant clones were isolated by trypsinization using cloning cylinders.
p53 heterozygous mice (Accession Number, CDB 0001K) (Oncogene (1993) 8, 3313-3322) were purchased from RIKEN BRC (Saitama, Japan). p53 heterozygous males and females were crossed, and MEFs were prepared from the pregnant females. Each 13- to 15-day-old embryo was dissected from the uterus and washed with PBS. After removal of the head, tail, limbs, and blood-enriched organs, the trimmed embryo was washed with PBS and minced. After trypsinization at 37° C. for 10 min followed by inactivation of trypsin by addition of FCS, MEFs were separated by filtration through a cell-strainer. p53 status was confirmed by PCR using previously described primers (forward primer for p53 genomic sequence, 5′-[…]-3′ (SEQ ID NO:3); reverse primer for p53 genomic sequence, 5′-[…]-3′ (SEQ ID NO:4), forward primer for neo sequence, 5′-[…]-3′ (SEQ ID NO:5)) (Oncogene (1993) 8, 3313-3322), and the established MEFs were maintained in DMEM high glucose with 10% FCS, 2-mercaptoethanol (2-ME), and antibiotics.
Cells were lyzed by the addition of lysis buffer (50 mM Tris-HCl pH6.8, 2% SDS, 5% glycerol), boiled for 5 min, and sonicated. Protein concentrations of the soluble fraction were determined by BCA protein assay (PIERCE, USA) according to the manufacturer's protocol, and standardized by the addition of lysis buffer. Following this, the proteins were added to 2-ME and bromophenol blue so as to obtain final concentrations of 5% and 0.025%, respectively, and boiled for 5 min. Equal amounts of proteins (5 to 20 μg) were subjected to SDS-PAGE and transferred to nitrocellulose membranes. The membranes were blocked with 2.5% skim milk and 0.25% BSA in TBS (50 mM Tris, pH 7.4, 150 mM NaCl) containing 0.1% Tween 20 (TTBS) for 1 h at room temperature, and then probed with appropriate primary antibodies overnight at 4° C. or for 2 h at room temperature. As primary antibodies, anti-Parp1 (clone C-2-10, WAKO, Japan), anti-p53 (clone Ab-1, Calbiochem, USA), anti-βactin (clone AC-15, SIGMA, USA), or anti-caspase-3 (clone 1F3, MBL, Japan) antibodies were used. […]

p53 = p53 protein stabilization by Western blotting in mouse fibroblast cells; assay type: cell-based; settings: for p53 accumulation: summary statement of the discussion; for p53 stabilization: 24 hours, FIG. 1A; for p53 protein stabilization: 8 hours, FIG. 4A
caspase-3 = caspase-3 activation by Western blotting in mouse fibroblast cells; assay type: cell-based; settings: 24 hours
Parp1 protein [2] = assay: Parp1 protein levels by Western blotting in human cell lines; assay type: cell-based
Parp1 mRNA = Parp1 mRNA by RT-PCR; assay type: cell-based, mouse; settings: 24 hours, FIG. 3A
Protocol: Cells were lyzed by RNAiso PLUS (TaKaRa, Japan), and then total RNA was purified using a FastPure RNA kit (TaKaRa, Japan) according to manufacturer's protocol. […] RNA was subjected to reverse transcription with PrimeScript Reverse Transcriptase (TaKaRa, Japan) and random hexamer (TaKaRa, Japan). The PCR reaction was performed using Platinum Taq DNA Polymerase High Fidelity (Invitrogen, USA) and Parp1 (forward, 5′-[…]-3′ (SEQ ID NO:6); reverse, 5′-[…]-3′ (SEQ ID NO:7)) or β-actin primers (forward, 5′-[…]-3′ (SEQ ID NO:8); reverse, 5′-[…]-3′ (SEQ ID NO:9)) as follows: initiation step, at 94° C. for 1 min; amplification step, 30 (Parp1) or 25 (β-actin) cycles of at 94° C. for 1 min, at 52° C. (Parp1) or 61° C. (β-actin) for 15 sec, at 68° C. for 15 sec; termination step, 68° C. 15 sec. PCR products were subjected to 1.8% agarose gel electrophoresis, stained with ethidium bromide, and visualized with LAS3000. The data was analyzed using MultiGauge software (FUJI FILM, Japan).

Parp1 = settings: cited from earlier work
[3] = 3T3-F442A cells, 24 hours, FIGS. 1A and 1B
[4] = 3T3-L1 cells, 24 hours, FIGS. 1A and 1B
[5] = 3T3-F442A cells, 8 hours, FIGS. 4A and 4B
[6] = 3T3-L1 cells, 8 hours, FIGS. 4A and 4B

With `CC(C)C[C@@H](C=O)NC(=O)[C@H](CC(C)C)NC(=O)[C@H](CC(C)C)NC(=O)OCc1ccccc1` [MG132] (Cbz-Leu-Leu-Leu-aldehyde) the “effect on Caylin2-induced reduction in Parp1” value (Parp1 protein [1]; 5 μM MG132 with 20 μM Caylin2, 8 hours, 3T3-L1 cells, FIG. 6B) was “clearly inhibited the Caylin2-induced reduction in Parp1”, the “effect on Nutlin3a-induced reduction in Parp1” value (Parp1 protein [1]; 5 μM MG132 with 25 μM Nutlin3a, 8 hours, 3T3-L1 and 3T3-F442A cells, FIG. 3B) was “clearly inhibited the Nutlin3a-induced reduction in Parp1” and the “basal Parp1 protein levels” value (Parp1 protein [1]; 8 hours, 3T3-L1 and 3T3-F442A cells, FIG. 3B) was “did not affect basal Parp1 protein levels”. For the same compound, the “basal Parp1 protein levels” value (Parp1 protein [1]; 8 hours, 3T3-L1 cells, FIG. 6B) was “did not affect basal Parp1 protein levels”, the “reduction in Parp1 protein” value (Parp1 protein [1]) was “did not evoke a significant reduction in Parp1 protein” and the p53 accumulation (p53) was “induced p53 accumulation”.
With `CC[C@@]1(O)C(=O)OCc2c1cc1n(c2=O)Cc2cc3ccccc3nc2-1` [Cpt, camptothecin] the Parp1 protein levels (Parp1 protein [1]; [3]) was “did not alter the Parp1 protein levels”, the Parp1 protein levels (Parp1 protein [1]; [4]) was “did not alter the Parp1 protein levels” and the “reduction in Parp1 protein” value (Parp1 protein [1]) was “did not evoke a significant reduction in Parp1 protein”. The caspase-3 activation (caspase-3; 3T3-F442A cells) was “no caspase-3 activation”, the caspase-3 activation (caspase-3; 3T3-L1 cells) was “no caspase-3 activation” and the p53 stabilization (p53; 3T3-F442A cells) was “induced p53 stabilization”. The p53 stabilization (p53; 3T3-L1 cells) was “induced p53 stabilization” and the p53 accumulation (p53) was “induced p53 accumulation”.
In the case of `N.N.[Cl][Pt][Cl]` [cisplatin], the Parp1 protein levels (Parp1 protein [1]; cisplatin treatment, data not shown) is reported as “did not affect Parp1 protein levels”, the “reduction in Parp1 protein” value (Parp1 protein [1]) is reported as “did not evoke a significant reduction in Parp1 protein” and the p53 accumulation (p53) is reported as “induced p53 accumulation”.
With `COc1ccc(C2=N[C@H](c3ccc(C(F)(F)F)cc3)[C@H](c3ccc(C(F)(F)F)cc3)N2C(=O)N2CCNC(=O)C2)c(OC(C)C)c1` [Caylin2] the “Parp1 cleavage / Parp1 protein” value (Parp1 protein [1]; 20 μM Caylin2, 8 hours) was “induced Parp1 protein decrease without any trace of its apoptotic cleavage”, the “Parp1 cleavage / Parp1 protein” value (Parp1 protein [1]; 100 μM Caylin2, 8 hours) was “induced Parp1 cleavage” and the Parp1 protein levels (Parp1 protein [1]; [5]) was “markedly decreased the Parp1 protein levels”. For the same compound, the Parp1 protein levels (Parp1 protein [1]; [6]) was “markedly decreased the Parp1 protein levels”, the “Parp1 reduction, p53 dependency” value (Parp1 protein [1]; 8 hours, FIGS. 5A and 5B) was “reduces the Parp1 protein levels in a p53-dependent manner” and the p53 protein stabilization (p53; 3T3-F442A cells) was “induced p53 protein stabilization”. For the same compound, the p53 protein stabilization (p53; 3T3-L1 cells) was “induced p53 protein stabilization”.
For `COc1ccc(C2=N[C@@H](c3ccc(Cl)cc3)[C@@H](c3ccc(Cl)cc3)N2C(=O)N2CCNC(=O)C2)c(OC(C)C)c1` [Nutlin3a], the Parp1 protein levels (Parp1 protein [1]; [5]) was “markedly decreased the Parp1 protein levels”, the Parp1 protein levels (Parp1 protein [1]; [3]) was “markedly decreased it” and the “decrease in Parp1” value (Parp1 protein [1]; 3T3-L1/shp53 cells (p53 stable knockdown), FIG. 2B) was “diminished significantly”. For the same compound, the “decrease in Parp1” value (Parp1 protein [1]; 3T3-L1 cells with shRNA-mediated transient knockdown of p53, FIG. 2A) was “attenuated the decrease in Parp1”, the Parp1 protein levels (Parp1 protein [1]; [6]) was “markedly decreased the Parp1 protein levels” and the Parp1 protein levels (Parp1 protein [1]; [4]) was “markedly decreased it”. The “Parp1 protein, time course” value (Parp1 protein [1]; 3T3-L1 or 3T3-F442A cells, 25 μM for 8 h, FIG. 1C) was “Parp1 protein diminished”, the “decrease in Parp1” value (Parp1 protein [1]; HW cells (p53 deficient), FIG. 2B) was “diminished significantly” and the “Parp1 reduction, p53 dependency” value (Parp1 protein [1]; 24 hours, FIG. 2C) was “reduces the Parp1 protein levels in a p53-dependent manner”. For the same compound, the “levels of full length of Parp1 protein” value (Parp1 protein [1]; Nutlin3a-treated 3T3-L1, first observation) was “significant reduction in the levels of full length of Parp1 protein without cleavage into p85 and p25 apoptotic fragments”, the caspase-3 activation (caspase-3; 3T3-F442A cells) was “no caspase-3 activation” and the caspase-3 activation (caspase-3; 3T3-L1 cells) was “no caspase-3 activation”. The “Nutlin3a-induced Parp1 decrease” value (Parp1 protein [2]; A549 cells, 24 h, FIG. 1D) was “detected the Nutlin3a-induced Parp1 decrease in only A549 cells”, the “reduction in Parp1 protein” value (Parp1 protein [2]; HCT116 cells, various doses of Nutlin3a, data not shown) was “no significant reduction in Parp1 protein other than apoptotic cleavage” and the “cell viability (trypan blue exclusion)” value (3T3-L1 cells) was “the cells were viable”. For the same compound, the “Parp1 mRNA” value (Parp1 mRNA; p53 deficient cell lines (3T3-L1/shp53 and HW)) was “did not change”, the “Parp1 mRNA” value (Parp1 mRNA; p53 proficient cell lines (3T3-L1 and 3T3-F442A)) was “did not change” and the “cleavage of Parp1” value (Parp1; human colon cancer cell line HCT116) was “induces cleavage of Parp1 into two apoptotic fragments”. The “cleavage of Parp1” value (Parp1; human myeloid leukemia cell line ML-1) was “induces cleavage of Parp1 into two apoptotic fragments”.
